How the values were obtained:
[1] = Chemical stability study, HPLC purity (% area) over time; format: physicochemical; settings: for % Area Compound / % Area Impurity: 500 μg/mL ophthalmic formulation, pH 5.5, 5° C.; for time the reference solution was stable: reference solution in water/absolute ethanol (90/10 v/v), stored at 5° C.±3° C., protected from light
Protocol: The chemical stability of compounds 1001 and 1002 was measured via HPLC analysis of the purity of these compounds over time. The purity assay of active components using percent area (% area) and impurities reported as percent area (% area) were measured by HPLC using the following conditions:
A sample diluent was prepared with water/absolute ethanol (90/10 v/v).
Reference solutions of compounds 1001 and 1002 were prepared by weighing approximately 10 mg (±2 mg) of a 1 mg/mL stock solution of compound 1001 or 1002 into a 1 mL amber volumetric flask. Approximately 0.5 mL of sample diluent was added and the solution swirled to mix. The sample was diluted to volume with sample diluent and mixed well. The reference solution for compound 1001 was stable for up to 7 days stored at 5° C.±3° C., protected from light. The reference solution for compound 1002 was stable for up to 3 days stored at 5° C.±3° C., protected from light.
Ophthalmic formulations of compounds 1001 (0.994 g of a 52 mg/mL solution in propylene glycol) or compound 1002 (1.034 g of a 50 mg/mL solution in propylene glycol) were prepared at 500 μg/mL dose strength in potassium phosphate buffer (25 mM, pH 5.5, 0.34 g) with 0.2 M sodium hydroxide solution (q.s.), sodium chloride (0.327 g), polysorbate 80 (0.5% w/v), and purified water (q.s. to 100). Sample solutions of compounds 1001 and 1002 were each prepared by accurately weighing approximately 20 mg of the 500 μg/mL compound formulation into a 1 mL amber volumetric flask. Approximately 0.5 mL of sample diluent was added and the solution gently swirled to mix. The solution was diluted to volume with sample diluent and mixed well.
The following equation was used to calculate the compound 1001 or compound 1002 purity assay (% area) in each sample: Analogue Content(% area)=(Area of analog/Total area of all peaks≧0.10% area)×100.
Impurities≧0.10% area were integrated and reported as % area to 2 decimal places.
Tables 5 and 6 show the results of the chemical stability study of compounds 1001 and 1002, respectively, over the course of 8 weeks at 5° C.

[2] = system: signs and symptoms of dry eye; experiment: Study of compound 1001 in dry eye: multi-center, double-masked, randomized, placebo-controlled; format: in vivo, human patients; settings: for change in ocular discomfort as compared to vehicle (ORA Ocular Discomfort Scale), improvement: dose C (275.6 μg/mL)
Excerpt: The objective of this study was to compare the efficacy of compound 1001 to placebo (vehicle minus active) for the treatment of the signs and symptoms of dry eye, in a multi-center, double-masked, randomized, placebo-controlled study in which 100 human patients were equally randomized into one of three active treatment groups or placebo and all treatment groups were exposed to identical humidity, temperature, and wind conditions which exacerbated the symptoms of dry eye. During a 14 day study run-in period prior to randomization (e.g., day −14 to day 0), all patients received placebo bilaterally two times per day (BID). At the time of treatment randomization (e.g., day 0), patients were exposed to 90 minutes of identical humidity, temperature, and wind conditions which exacerbated the symptoms of dry eye after which patients were stratified based on the following criterion: Central corneal staining post-exposure<2.5 or >3.0. Patients eligible to be randomized received one of the following treatments to be administered as approximately a 30 μL drop to both eyes BID: 1) Compound 1001 at dose A (26.4 μg/mL) Ophthalmic Solution; 2) Compound 1001 at dose B (87.8 μg/mL) Ophthalmic Solution; 3) Compound 1001 at dose C (275.6 μg/mL) Ophthalmic Solution; 4) Placebo Ophthalmic Solution (Vehicle minus active). Brief Summary of Visit Schedule. […] The primary endpoint of mean ocular discomfort in the conditions for exacerbating the symptoms of dry eye using the ORA Ocular Discomfort Scale (during the 90 minute exposure) was summarized statistically (m, mean, standard deviation, median, min and max), and analyzed with 1-sided t-tests comparing the best dose to placebo with a p-value<0.025 considered significant. […] Ocular discomfort during this exposure period was measured using the ORA Ocular Discomfort Scale with the ocular discomfort score being the average of all time points during exposure. Ocular discomfort was measured again at visit 5 (e.g., day 29). […] Symptoms of grittiness, dryness were measured on environmental day 28 on a visual analog scale of 0-5.

[3] = Ocular PK (distribution) study in Dutch-belted rabbits, topical ocular dosing, compound 1003 measured by LC/MS/MS; format: in vivo; settings: topical ocular administration of compounds 1001 and 1002 to rabbits, compared with each other
Protocol: The ocular distribution of compound 1001,
[drawing 220] in the ocular tissues of Dutch-belted rabbits when administered topically to the surface of the eye was evaluated.
Healthy, young adult Dutch-belted rabbits (male/female; at least 1.5 kg) were acclimated for at least 7 days prior to initiation of the study. Prior to the initiation of the study, the eyes of the rabbits were examined to ensure that the eyes were free of any defects that may affect the integrity of the study. Examinations were performed by a qualified observer.
Animals were dosed via the topical ocular route using a pipettor system which delivered a 30 μL dose to each eye. Each animal was dosed at T=0. The right eye received a dose concentration of 300 μg/mL of compound 1001 and the left eye received a dose concentration of 300 μg/mL of compound 1002. At the intervals noted in Table 3, the animals were sacrificed. […]
Spiking solutions for standards were prepared by diluting compound 1003 as its sodium salt (e.g., M is Na) (dissolved in ethanol) in ethanol spanning the concentration range of 0.100 to 4000 ng/mL of compound 1003. Two standard curves were extracted and subsequently analyzed one before and one after the samples. […]
Compound 1003 in the homogenized/extracted/dried/reconstituted samples was analyzed by LC/MS/MS using D4-PGE2 as the internal standard. […]

Row | SMILES | % Area Compound ([1]; 2 weeks) [% Area] | % Area Impurity ([1]; 2 weeks) [% Area] | % Area Compound ([1]; 4 weeks) [% Area] | % Area Impurity ([1]; 4 weeks) [% Area] | chemical stability compared (percent purity over time) ([1]; 8 weeks at 5° C., compound 1001 versus compound 1002) | % Area Compound ([1]; 8 weeks) [% Area] | % Area Impurity ([1]; 8 weeks) [% Area] | % Area Compound ([1]; Initial) [% Area] | % Area Impurity ([1]; Initial) [% Area] | time the reference solution was stable [1] | dryness, visual analog scale of 0-5, change as compared to vehicle ([2]; day 28, dose C (275.6 μg/mL) topically, FIG. 4) | change in ocular discomfort as compared to vehicle (ORA Ocular Discomfort Scale), improvement ([2]; day 28, approx. 30 μL drop to both eyes BID, FIG. 2) [%] | change in ocular discomfort as compared to vehicle (ORA Ocular Discomfort Scale), improvement ([2]; day 29, 24 hours after last treatment, FIG. 3) [%] | levels of compound 1003 observed in the aqueous humor, the vitreous and the cornea (FIG. 1) [3] | % Area Compound ([1]; 1 week) [% Area] | % Area Impurity ([1]; 1 week) [% Area]
1 | C#CC[C@@H](O)/C=C/C=C/C#C[C@@H](O)CCCC(=O)OC(C)C [Compound 1001] | 99.03 | 0.97 | 99.39 | 0.61 | better chemical stability | 99.31 | 0.69 | 99.55 | 0.45 | up to 7 days | significant change | ~27 | ~36 | comparable levels | – | –
2 | C#CC[C@@H](O)/C=C/C=C/C#C[C@@H](O)CCCC(=O)OC [Compound 1002] | 97.46 | 2.55 | 96.54 | 3.46 | – | 94.95 | 5.05 | 98.29 | 1.71 | up to 3 days | – | – | – | comparable levels | 97.58 | 2.43

Source: US8673881B2, “Compositions and methods for the treatment of inflammation” (A.T. Resolve Sarl, priority 2009, dated 2014)
